Source: patent US5958947A, “DNA-affinic hypoxia selective cytotoxins” (priority 1996, dated 1999)

Test system: OVCAR cells
Assay: Chemosensitization of OVCAR cells to L-PAM and cis-DDP
Assay type: cell-based
Settings: OVCAR cells resistant to L-PAM and cis-DDP
Excerpt: A longer hypoxic preexposure time and a lower sensitizer dose are preferred over a shorter hypoxic preexposure time and a higher sensitizer dose. […] OVCAR cells are resistant to L-PAM and cis-DDP.

## Cl.O=[N+]([O-])c1nccn1CCCNc1c2c(nc3ccccc13)CCCC2 [THNLA-1, 9-[3-(2-nitro-1-imidazolyl)propylamino]-1,2,3,4-tetrahydroacridine hydrochloride]
  chemosensitization to L-PAM and cis-DDP: effectively chemosensitizes OVCAR cells
